Data on 19 compounds can be found in PMC3597726, “N-Substituted Benzyl Matrinic Acid Derivatives Inhibit Hepatitis C Virus (HCV) Replication through Down-Regulating Host Heat-Stress Cognate 70 (Hsc70) Expression” (PLoS ONE, 2013).

Usually EC50 stands for the concentration giving half of the maximal effect. What is called CC50 is the concentration giving 50% cytotoxicity. Read a high CC50 as better tolerance by the cells.

SMILES strings stand for the structures. A value given as a limit tells only on which side of the number the result lay.

Data set [1] concerns HCV (recombination virus strain J6/JFH/JC). Put plainly: Anti-HCV activity in Huh7.5 cells, intracellular HCV RNA by real-time RT-PCR. It counts as cell-based, hepatitis C virus (HCV). The conditions noted are these: for EC50: anti-HCV activity, 72 h, HCV RNA by RT-PCR. The protocol:
(§1) All of the synthesized compounds were examined for their anti-HCV activity and cytotoxicity in Huh 7.5 cells using specific real-time RT-PCR assay, as described in our previous publication. Anti-HCV activity was evaluated by measuring both EC50 (for anti-HCV activity) and CC50 (for cytotoxicity) values. As a key indication, the selectivity index (SI) was calculated as a ratio of CC50 to EC50. Anti-HCV activity of the study compound was estimated by combining its EC50 value with SI.
Huh7.5 cells were seeded into 96-well or 6-well plates (Costar) at a density of 3×10^4 cells/cm^2. After 24 h incubation, the cells were infected with HCV viral stock (recombination virus strain J6/JFH/JC, 45 IU/cell) and simultaneously treated with the test compounds at various concentrations.
Concentrations or solvent as the control. The culture medium was removed after 72 h incubation, the intracellular total RNA (in 96-well plates) was extracted with RNeasy Mini Kit (Qiagen), and total intracellular proteins (in 6-well plates) were extracted with Cyto-Buster Protein Extraction Reagent added with 1 mM protease inhibitor cocktail. The intracellular HCV RNA was quantified with a real time one-step reverse-transcription polymerase chain reaction (RT-PCR). HCV core protein was detected with western blot (see below).

Data set [2] has as its system Huh7.5 cells. Put plainly: Cytotoxicity assay (MTT) in Huh7.5 cells. It is filed as cell-based, Human. Here is the method: as §1
Huh7.5 cells were seeded into 96-well plates (Costar) at a density of 3×10^4 cells/cm^2. After 24 h incubation. Fresh culture medium containing test compounds at various concentrations were added. 72 h later, Cytotoxicity was evaluated with 3-(4,5-Dimethylthiazol-2-yl)-2,5-diphenyltetrazolium bromide (MTT).

`Cc1ccc(CN2CC3CCCN4CCCC(C2CCCC(=O)O)C34)cc1` (centres unmarked) [Compound 12c, 12-N-4-Methylbenzyl sophoridinic acid]: in data set [1], the “SI (selectivity index, CC50/EC50)” value was found to be 4.4 and the concentration for a half-maximal effect (EC50) worked out at 503 µM. The same compound gave a CC50 in data set [2] of 2200 µM.

For `O=C(O)CCCC1C2CCCN3CCCC(CN1Cc1ccc(OC(F)(F)F)cc1)C23` (centres unmarked) [Compound 12f, 12-N-4-Trifluoromethoxybenzyl sophoridinic acid], in data set [1], the “SI (selectivity index, CC50/EC50)” value turned out to be 12.7 and the EC50 came out at 11.1 µM. The compound also showed a CC50 in data set [2] of 141 µM.

Regarding `O=C(O)CCCC1C2CCCN3CCCC(CN1Cc1ccccc1F)C23` (centres unmarked) [Compound 12d, 12-N-2-Flurobenzyl sophoridinic acid], in data set [1], the “SI (selectivity index, CC50/EC50)” value is listed as under 1.7 and the EC50 was over 890 µM. Moreover, in data set [2], it took 1550 µM to reach half-maximal cytotoxicity (CC50).

`O=C(O)CCC[C@@H]1[C@H]2CCCN3CCC[C@@H](CN1Cc1ccccc1F)[C@@H]23` [Compound 7d, 12-N-2-Fluorobenzyl matrinic acid]: in data set [1], the “SI (selectivity index, CC50/EC50)” value amounted to 19.0 and the EC50 was 87.4 µM. This compound gave a CC50 in data set [2] of 1660 µM.

For the compound `O=C(O)CCCC1C2CCCN3CCCC(CN1Cc1cccc(F)c1)C23` (centres unmarked) [Compound 7e, 12-N-3-Fluorobenzyl matrinic acid], in data set [1], the “SI (selectivity index, CC50/EC50)” value amounted to 8.4 and the EC50 came to 168 µM. In data set [2], this compound registered a CC50 of 1410 µM.

In the case of `COc1ccc(CN2CC3CCCN4CCCC(C2CCCC(=O)O)C34)cc1` (centres unmarked) [Compound 12a, 12-N-4-Methoxybenzyl sophoridinic acid], in data set [1], the “SI (selectivity index, CC50/EC50)” value amounted to 18.5 and the EC50 was 57.5 µM. Moreover, it took 1060 µM to reach half-maximal cytotoxicity in data set [2] (CC50).

Consider `Cc1cccc(CN2C[C@@H]3CCCN4CCC[C@@H]([C@H]34)[C@H]2CCCC(=O)O)c1` [Compound 7b, 12-N-3-Methylbenzyl matrinic acid], for which, in data set [1], the “SI (selectivity index, CC50/EC50)” value is 9.0 and the EC50 was determined as 266 µM. The compound also displayed a CC50 in data set [2] of 2390 µM.

As to `O=C(O)CCC[C@@H]1[C@H]2CCCN3CCC[C@@H](CN1Cc1ccc(OC(F)(F)F)cc1)[C@@H]23` [Compound 7n, 12-N-4-Trifluoromethoxybenzyl matrinic acid], in data set [1], the “SI (selectivity index, CC50/EC50)” value is reported as 15.5 and the EC50 stood at 88.5 µM. In data set [2], this compound yielded a CC50 of 1380 µM.

`O=C(O)CCCC1C2CCCN3CCCC(CN1Cc1ccc(F)cc1)C23` (centres unmarked) [Compound 7f, 12-N-4-Fluorobenzyl matrinic acid]: in data set [1], the “SI (selectivity index, CC50/EC50)” value is recorded as over 15.1 and the EC50 turned out to be 176 µM. The compound further showed a CC50 in data set [2] of over 2670 µM.

On to `O=C(O)CCCC1C2CCCN3CCCC(CN1Cc1ccccc1Cl)C23` (centres unmarked) [Compound 7g, 12-N-2-Chlorobenzyl matrinic acid], for which, in data set [1], the “SI (selectivity index, CC50/EC50)” value turned out to be 7.3 and the EC50 is 176 µM. This compound registered a CC50 in data set [2] of 1290 µM.

Regarding `Cc1cccc(CN2CC3CCCN4CCCC(C2CCCC(=O)O)C34)c1` (centres unmarked) [Compound 12b, 12-N-3-Methylbenzyl sophoridinic acid], in data set [1], the “SI (selectivity index, CC50/EC50)” value was 2.9 and the EC50 came out at 453 µM. Further, the midpoint of cytotoxicity in data set [2], the CC50, lay at 1320 µM.

On to `O=C(O)CCCC1C2CCCN3CCCC(CN1Cc1cccc(Cl)c1)C23` (centres unmarked) [Compound 7h, 12-N-3-Chlorobenzyl matrinic acid], for which, in data set [1], the “SI (selectivity index, CC50/EC50)” value is over 28.9; the “anti-HCV activity (in words)” value is “slight improvement in comparison to the lead”; the EC50 came to 88.5 µM. In data set [2], this compound had a CC50 of over 2560 µM.

On to `O=C(O)CCCC1C2CCCN3CCCC(CN1Cc1ccc(Cl)cc1Cl)C23` (centres unmarked) [Compound 7k, 12-N-2,4-Dichlorobenzyl matrinic acid], for which, in data set [1], the “SI (selectivity index, CC50/EC50)” value is reported as 1.3 and the EC50 stood at 460 µM. Moreover, the CC50 in data set [2] was determined as 578 µM.

`O=C(O)CCCC1C2CCCN3CCCC(CN1Cc1ccc(Cl)c(Cl)c1)C23` (centres unmarked) [Compound 7j, 12-N-3,4-Dichlorobenzyl matrinic acid]: in data set [1], the “SI (selectivity index, CC50/EC50)” value was determined as 3.7 and the EC50 amounted to 268 µM. It took 1010 µM to reach half-maximal cytotoxicity in data set [2] (CC50).

As for `Cc1ccccc1CN1CC2CCCN3CCCC(C1CCCC(=O)O)C23` (centres unmarked) [Compound 7a, 12-N-2-Methylbenzyl matrinic acid], in data set [1], the “SI (selectivity index, CC50/EC50)” value was 5.6 and the EC50 worked out at 203 µM. This compound showed a CC50 in data set [2] of 1130 µM.

Regarding `O=C(O)CCCC1C2CCCN3CCCC(CN1Cc1ccc(F)cc1)C23` (centres unmarked) [Compound 12e, 12-N-4-Flurobenzyl sophoridinic acid], in data set [1], the “SI (selectivity index, CC50/EC50)” value is 10.4 and the EC50 stood at 108 µM. This compound showed a CC50 in data set [2] of 1120 µM.

For `O=C(O)CCCC1C2CCCN3CCCC(CN1Cc1ccc(Cl)cc1)C23` (centres unmarked) [Compound 7i, 12-N-4-Chlorobenzyl matrinic acid], in data set [1], the “SI (selectivity index, CC50/EC50)” value was 18.4 and the concentration giving a half-maximal response (EC50) stood at 136 µM. In addition, in data set [2], the midpoint of cytotoxicity, the CC50, lay at 2500 µM.

Turning to `O=C(O)CCCC1C2CCCN3CCCC(CN1Cc1cccc4ccccc14)C23` (centres unmarked) [Compound 7o, 12-N-1-Naphthylmethylenyl matrinic acid], in data set [1], the “SI (selectivity index, CC50/EC50)” value is listed as under 1.6; the “anti-HCV activity (in words)” value is “lost the activity completely”; the EC50 was over 821 µM. In addition, in data set [2], the CC50 worked out at 1300 µM.

Regarding `O=C(O)CCCC1C2CCCN3CCCC(CN1Cc1ccc(Br)cc1)C23` (centres unmarked) [Compound 7l, 12-N-4-Bromobenzyl matrinic acid], in data set [1], the “SI (selectivity index, CC50/EC50)” value was determined as 10.3 and the EC50 came out at 119 µM. Moreover, the midpoint of cytotoxicity in data set [2], the CC50, lay at 1230 µM.
